In article PMC8365602 (Journal of Medicinal Chemistry, 2021):

Tests used:
[1] = biological target: single mutant Arg101Asp 5-LOX (R101D) (Homo sapiens, UniProt P09917, R102D); test: Cell-free activity of 5-LOX single mutant (R101D)
Description: Human recombinant 5-LOX was expressed in E. coli Bl21 (DE3) cells that were transformed with pT3–5LOX (wt 5-LOX), 5-LOX_3W (triple mutation of Trp102Ala/Trp13Ala/Trp75Ala), or 5-LOX_R (single mutant of the Arg101Asp plasmid) and purified on an ATP-agarose column (Econo-Pac, Bio-Rad, Hercules, CA) by affinity chromatography.[6],[75]
Purified 5-LOX (0.5 μg in PBS pH 7.4 containing 1 mM EDTA and 1 mM ATP) was preincubated with the vehicle (DMSO) or test compounds for 10 min and prewarmed at 37 °C.

[2] = system: human macrophages (M1 subtype); test: Lipid mediator profile of M1 macrophages stimulated with pathogenic E. coli; assay type: cell-based; conditions: 1 μM
Description: Macrophages were polarized to the M1 phenotype by stimulation with LPS (100 ng/mL, Sigma-Aldrich) and interferon (IFN)-γ (20 ng/mL, Peprotech, Hamburg, Germany) for 48 h.[23]
Monocytes (1 × 10^6/mL), which were prestimulated with LPS (1 μg/mL) for 24 h to induce COX-2 expression, or M1 macrophages (2 × 10^6 cells/mL) were preincubated with the vehicle (0.1% DMSO), 27a, or 12a for 15 min. Arachidonic acid (20 μM) and A23187 (2.5 μM) were added to monocytes suspended in a monocyte medium (lacking FCS if indicated) to induce lipid mediator formation.[81]
Fatty acids and lipid mediators were extracted from macrophage supernatants or murine peritoneal exudates (1 mL) after addition of two aliquots of ice-cold methanol.[23]d8-5S-HETE, d4-LTB4, d5-lipoxin A4, d5-resolvin D2, d4-PGE2 (200 nM, each, Cayman Chemicals), and d8-arachidonic acid (10 μM, Cayman Chemicals) were added as internal standards. […] The columns were extensively washed with H2O and hexane before lipid mediators were eluted with methyl formate, evaporated to dryness, dissolved in methanol/H2O (50:50), and analyzed by UPLC-MS/MS.[23]
To quantify lipid mediators and fatty acids in macrophages, murine plasma, and murine peritoneal exudates, the mobile phase methanol/H2O (acidified with 0.01% acetic acid) was ramped from 42:58 to 86:14 over 12.5 min, followed by isocratic elution with methanol/H2O (98:2) for 3 min. […]

[3] = Radical scavenging activity (DPPH); conditions: DPPH
Description: Compound 27a was incubated with 2,2-diphenyl-1-picrylhydrazyl (DPPH, Sigma-Aldrich; 50 mM) in ethanol for 30 min, and the absorbance was measured at 520 nm using a Multiskan Spectrum Microplate Reader (Thermo Fisher Scientific).[72] The positive control ascorbic acid (Sigma-Aldrich; 25 μM) scavenged DPPH radicals by 36 ± 11%.

[4] = system: reconstructed human epidermis (RHE); test: Experimental atopic dermatitis in reconstructed human epidermis (RHE); assay type: cell-based; conditions: RHE
Description: Compound 27a was evaluated in an inflammatory model of RHE by Synelvia S.A.S. (Labège, France) according to the company’s protocol.[88] In brief, primary human keratinocytes were used to generate RHE on polycarbonate filters as described.[88] RHE was allowed to acclimate for 6 days (5% CO2, 37 °C) prior to incubation with 27a (5, 10, 25 μM), dexamethasone (1 μM), or vehicle (0.05% DMSO), and a proinflammatory cytokine cocktail for 4 days at 5% CO2 and 37 °C. The culture medium including compounds and cytokines was changed on days 6, 8, and 10. Each culture condition was repeated three times. Acute cytotoxicity of 27a was excluded at the concentrations studied within 24 h by measuring the mitochondrial dehydrogenase activity (MTT assay).
Morphological changes (i.e., spongiosis and the formation of keratohyalin granules) were evaluated for sections of paraffin-embedded RHEs after hematoxylin-eosin staining.[89] The permeability of the skin barrier was estimated from the transepidermal water loss at the RHE surface.[90] The surface pH was determined with a pH electrode as reported.[89] The permeability of the stratum corneum was addressed by applying Lucifer yellow onto the RHE surface and inspecting the penetration by fluorescence microscopy.[88] TSLP and IL-8 levels were analyzed by ELISA (according to the specifications of Synelvia S.A.S.) in the culture medium on day 2 and day 4 after addition of cytokines, respectively.

PMNL = test: fMLP-induced Ca2+ influx in PMNL; assay type: cell-based, human
Description: PMNL (1 × 10^6) were loaded with Fura-2/AM (2 nmol, Thermo Fisher Scientific) for 45 min at 37 °C. […] Intracellular Ca^2+ concentrations were measured using a NOVOstar fluorescence microplate reader (BMG Labtech, Ortenberg, Germany) at 37 °C. The emission wavelength was set to 510 nm and the excitation wavelengths to 340 nm (Ca^2+-bound Fura-2) and 380 nm (free Fura-2).[23] To define 100% Ca^2+ influx, the difference between the maximal influx (cell lysis by Triton X-100) and minimal influx (subsequent chelation of Ca^2+ by EDTA) was measured for each experiment.

human recombinant COX-2 = biological target: T1, human recombinant COX-2 (Homo sapiens, UniProt P35354); test: COX-2 activity; assay type: biochemical
T1 construct: purchased Cayman Chemicals
Description: Purified ovine COX-1 (Cayman Chemicals; 50 units) or human recombinant COX-2 (Cayman Chemicals; 20 units) was dissolved in 100 mM Tris buffer pH 8, 5 mM glutathione, 5 μM hemoglobin, and 100 μM EDTA. COX isoenzymes were preincubated with the vehicle (DMSO) or 27a for 5 min at 4 °C and 1 min at 37 °C. Addition of arachidonic acid (COX-1: 5 μM; COX-2: 2 μM) initiated the formation of COX-derived 12(S)-hydroxy-5-cis-8,10-trans-heptadecatrienoic acid (12-HHT), which was extracted and analyzed by RP-HPLC according to 5-LOX products.

single mutant Arg101Asp 5-LOX (R101D), sequence (P09917 whole entry R102D): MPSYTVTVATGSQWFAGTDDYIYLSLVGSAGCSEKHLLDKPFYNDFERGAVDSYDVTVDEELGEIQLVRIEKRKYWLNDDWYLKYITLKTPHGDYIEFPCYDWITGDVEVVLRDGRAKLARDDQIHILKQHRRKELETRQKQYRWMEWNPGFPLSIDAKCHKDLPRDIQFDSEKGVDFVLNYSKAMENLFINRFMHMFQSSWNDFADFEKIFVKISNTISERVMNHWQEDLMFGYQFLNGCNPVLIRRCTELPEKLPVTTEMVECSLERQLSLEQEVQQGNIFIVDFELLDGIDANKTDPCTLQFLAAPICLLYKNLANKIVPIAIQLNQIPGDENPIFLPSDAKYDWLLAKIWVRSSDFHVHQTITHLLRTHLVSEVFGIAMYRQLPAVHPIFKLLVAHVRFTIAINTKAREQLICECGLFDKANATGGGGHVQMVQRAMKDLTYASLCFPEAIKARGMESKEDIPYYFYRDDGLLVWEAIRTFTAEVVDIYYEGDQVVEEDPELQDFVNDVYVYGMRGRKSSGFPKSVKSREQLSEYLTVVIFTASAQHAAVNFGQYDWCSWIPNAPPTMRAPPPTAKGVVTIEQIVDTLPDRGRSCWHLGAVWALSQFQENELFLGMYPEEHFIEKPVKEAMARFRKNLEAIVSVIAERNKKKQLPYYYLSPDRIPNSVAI
T1 sequence (P35354 18-604): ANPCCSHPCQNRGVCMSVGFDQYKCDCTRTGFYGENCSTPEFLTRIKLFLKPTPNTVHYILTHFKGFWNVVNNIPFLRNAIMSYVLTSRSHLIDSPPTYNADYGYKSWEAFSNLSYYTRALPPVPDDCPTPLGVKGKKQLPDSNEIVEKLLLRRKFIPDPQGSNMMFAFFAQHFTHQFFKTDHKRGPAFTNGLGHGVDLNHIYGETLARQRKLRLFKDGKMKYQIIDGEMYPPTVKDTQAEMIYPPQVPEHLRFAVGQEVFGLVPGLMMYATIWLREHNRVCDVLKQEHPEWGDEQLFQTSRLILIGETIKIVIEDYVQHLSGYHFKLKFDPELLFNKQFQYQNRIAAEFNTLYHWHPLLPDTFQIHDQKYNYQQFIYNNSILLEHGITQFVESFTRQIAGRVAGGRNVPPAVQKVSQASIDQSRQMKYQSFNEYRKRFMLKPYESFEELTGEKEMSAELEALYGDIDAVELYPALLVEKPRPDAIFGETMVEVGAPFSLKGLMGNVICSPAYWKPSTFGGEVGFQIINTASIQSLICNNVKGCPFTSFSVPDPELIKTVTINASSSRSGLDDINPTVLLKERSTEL

For `C/C(=C\CC/C(C)=C/CC[C@]1(C)CCc2c(C)c(O)c(C)c(C)c2O1)CCC=C(CO)CO` [Compound 27a, α-amplexichromanol], the “Effect of Arg101Asp replacement on 5-LOX inhibition” value [1] was “failed to affect 5-LOX inhibition”, the “Biosynthesis of 5-LOX-derived products in M1 macrophages” value [2] was “preferentially suppressed the biosynthesis of 5-LOX-derived products” and the “PGE2 levels in M1 macrophages” value [2] was “slightly increased”. The “Concentrations with antioxidative properties (radical scavenging) versus 5-LOX inhibition” value [3] was “exceed those that effectively inhibit 5-LOX”, the TSLP expression ([4]; cytokine cocktail 2 days) was “did not influence TSLP expression” and the “Epidermal disorganization induced by cytokine treatment” value ([4]; cytokine cocktail 4 days) was “attenuated the epidermal disorganization”. For the same compound, the IL-8 levels ([4]; cytokine cocktail 4 days) was “reduced IL-8 levels”, the “Skin barrier functions (TEWL, Lucifer yellow)” value ([4]; cytokine cocktail 4 days) was “substantially improved skin barrier functions” and the “pH at the RHE surface” value ([4]; cytokine cocktail 4 days) was “decreased even below the basal level”. The “Ca2+ influx” value (PMNL; 10 μM) was “substantially reduced”, the “Intracellular levels of Ca2+” value (PMNL; submicromolar concentrations (≤1 μM)) was “nor influenced intracellular levels of Ca^2+” and the COX-2 inhibition (human recombinant COX-2) was “not substantially inhibited”.
